Literature values, collected in US9827281B2, “Medication dispensing system” (priority 2015, dated 2017).

What was measured:
[1] = system: cannabinoid receptors
[2] = system: estrogen receptor-positive and estrogen receptor-negative breast cancer cell lines; conditions: inducing apoptosis in a concentration-dependent manner
[3] = system: nontumorigenic mammary cells
[4] = target: T1, androgen receptor in the prostate gland (Homo sapiens, UniProt P10275)
T1 construct: host or cells: prostate gland
T1 sequence (P10275 1-920): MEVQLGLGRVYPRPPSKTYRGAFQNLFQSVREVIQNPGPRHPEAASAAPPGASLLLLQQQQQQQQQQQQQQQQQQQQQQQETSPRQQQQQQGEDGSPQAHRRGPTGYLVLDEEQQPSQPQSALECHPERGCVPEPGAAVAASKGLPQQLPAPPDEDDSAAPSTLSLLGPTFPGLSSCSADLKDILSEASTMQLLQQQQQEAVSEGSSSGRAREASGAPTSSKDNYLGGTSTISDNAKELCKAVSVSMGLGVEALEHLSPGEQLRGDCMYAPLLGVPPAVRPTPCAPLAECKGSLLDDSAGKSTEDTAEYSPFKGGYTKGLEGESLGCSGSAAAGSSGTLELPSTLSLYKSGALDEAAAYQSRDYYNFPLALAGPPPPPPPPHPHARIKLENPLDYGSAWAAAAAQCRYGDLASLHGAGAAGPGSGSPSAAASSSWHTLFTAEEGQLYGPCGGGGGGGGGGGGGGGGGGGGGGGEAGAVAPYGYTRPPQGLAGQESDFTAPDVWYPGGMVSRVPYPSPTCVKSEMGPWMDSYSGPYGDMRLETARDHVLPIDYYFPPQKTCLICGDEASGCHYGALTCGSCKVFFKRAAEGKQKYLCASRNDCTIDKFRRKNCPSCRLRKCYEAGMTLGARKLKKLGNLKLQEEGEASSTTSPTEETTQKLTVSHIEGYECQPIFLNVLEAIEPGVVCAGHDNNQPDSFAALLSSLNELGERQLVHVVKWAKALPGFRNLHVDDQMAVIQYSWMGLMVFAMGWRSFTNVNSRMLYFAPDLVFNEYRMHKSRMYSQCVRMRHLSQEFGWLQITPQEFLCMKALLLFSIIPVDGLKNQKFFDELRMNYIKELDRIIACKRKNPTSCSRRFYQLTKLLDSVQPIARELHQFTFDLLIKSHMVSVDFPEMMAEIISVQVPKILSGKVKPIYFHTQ

[5] = system: prostate cell line, PC-3
[6] = target: CB1 receptor (Homo sapiens, UniProt P21554)
[7] = not given; remark: listed apart in the source

Chain of CB1 receptor (P21554 whole entry): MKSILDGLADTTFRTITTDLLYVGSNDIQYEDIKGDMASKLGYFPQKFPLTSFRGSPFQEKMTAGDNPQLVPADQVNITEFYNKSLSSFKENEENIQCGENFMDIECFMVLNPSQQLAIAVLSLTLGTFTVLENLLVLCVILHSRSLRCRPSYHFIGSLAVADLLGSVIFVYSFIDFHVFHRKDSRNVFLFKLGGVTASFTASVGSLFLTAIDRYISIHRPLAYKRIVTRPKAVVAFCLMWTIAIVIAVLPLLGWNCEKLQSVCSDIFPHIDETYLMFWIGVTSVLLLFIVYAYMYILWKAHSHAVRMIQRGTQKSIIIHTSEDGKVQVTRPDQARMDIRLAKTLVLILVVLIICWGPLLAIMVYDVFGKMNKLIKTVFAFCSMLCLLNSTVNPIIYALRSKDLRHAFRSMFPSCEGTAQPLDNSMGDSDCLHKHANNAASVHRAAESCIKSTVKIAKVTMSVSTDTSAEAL

## C=C(C)[C@@H]1CCC(C)=C[C@H]1c1c(O)cc(CCCCC)cc1O [CBD, Cannabidiol]
[1]
  affinity to cannabinoid receptors: low affinity
[2]
  survival of breast cancer cell lines: inhibited the survival
[3]
  effect on nontumorigenic mammary cells: little effect

## CCCCCc1cc(O)c2c(c1)OC(C)(C)[C@@H]1CCC(C)=C[C@@H]21 [THC, Tetrahydrocannabinol]
[4]
  specific binding of dihydroxytestosterone to the androgen receptor: inhibits specific binding
[5]
  apoptosis: causes apoptosis
cold-pressor test after administration
  pain sensitivity: decreased pain sensitivity
cold-pressor test, dronabinol oral capsules 10 mg or 20 mg
  time after administration at which pain reduction effects were felt (average): 180 min
Compared with smoked marijuana
  duration of effects: lasted longer than smoked marijuana

## CCCc1cc(O)c2c(c1)OC(C)(C)[C@@H]1CCC(C)=C[C@@H]21 [THCV, Tetrahydrocannabivarin]
[6]
  CB1 receptor mode of action: antagonist

## vitamin E
[7]; pre-menopausal women with a family history of breast cancer, highest quantity of vitamin E consumed
  reduction in breast cancer incidence: 43%
[7]; women without a family history of breast cancer
  risk reduction of breast cancer: 16%
